According to patent US20160304959A1, “COMPOSITIONS AND METHODS FOR TREATING DIABETIC NEPHROPATHY” (Rush University Medical Center, priority 2013, published 2016):

What was measured:
[1] = tested on: DN prone miR-146a KO animals; test: STZ-induced diabetic nephropathy in miR-146a KO animals, albuminuria; type: in vivo, mouse; settings: miR-146a KO + STZ mice, 70 mg/kg I.P. daily from 4 weeks post-STZ
Method: We investigated the role of miR-146 in diabetic nephropathy (DN) using the miR-146a KO animals and a DN mouse model. Streptozotocin (STZ) treatment (125 mg/kg, two doses 3 days apart) induced similar levels of hyperglycemia in both WT and miR146a KO animals (FIG. 7).
To determine if inhibiting ErbB4 using ErbB4 erlotinib would be beneficial and protect animals from DN, we administered Erlotinib (70 mg/kg in saline/Kolliphor, Tween, I.P., daily) in DN prone miR-146a KO animals starting at 4 weeks post-STZ.

[2] = tested on: WT and miR-146a KO DN mice; test: TEM of kidney sections for podocyte foot process effacement after STZ; type: in vivo, mouse
Method: We also analyzed the kidney sections using transmission electron microscopy (TEM) to determine if erlotinib treatment provided protection of podocytes from foot process effacement. TEM was performed according to the standard protocols (Sever, S. et al. J Clin. Invest. 117, 2095-2104 (2007)).

ErbB4 = ErbB4 (Homo sapiens, UniProt Q15303); settings: cited from earlier work; for Affinity and selectivity for ErbB4 versus EGFR: pan-ErbB inhibitors; for Inhibition of ErbB4 (affinity): ref. 77 for JNJ
ErbB4, sequence (Q15303 26-1308): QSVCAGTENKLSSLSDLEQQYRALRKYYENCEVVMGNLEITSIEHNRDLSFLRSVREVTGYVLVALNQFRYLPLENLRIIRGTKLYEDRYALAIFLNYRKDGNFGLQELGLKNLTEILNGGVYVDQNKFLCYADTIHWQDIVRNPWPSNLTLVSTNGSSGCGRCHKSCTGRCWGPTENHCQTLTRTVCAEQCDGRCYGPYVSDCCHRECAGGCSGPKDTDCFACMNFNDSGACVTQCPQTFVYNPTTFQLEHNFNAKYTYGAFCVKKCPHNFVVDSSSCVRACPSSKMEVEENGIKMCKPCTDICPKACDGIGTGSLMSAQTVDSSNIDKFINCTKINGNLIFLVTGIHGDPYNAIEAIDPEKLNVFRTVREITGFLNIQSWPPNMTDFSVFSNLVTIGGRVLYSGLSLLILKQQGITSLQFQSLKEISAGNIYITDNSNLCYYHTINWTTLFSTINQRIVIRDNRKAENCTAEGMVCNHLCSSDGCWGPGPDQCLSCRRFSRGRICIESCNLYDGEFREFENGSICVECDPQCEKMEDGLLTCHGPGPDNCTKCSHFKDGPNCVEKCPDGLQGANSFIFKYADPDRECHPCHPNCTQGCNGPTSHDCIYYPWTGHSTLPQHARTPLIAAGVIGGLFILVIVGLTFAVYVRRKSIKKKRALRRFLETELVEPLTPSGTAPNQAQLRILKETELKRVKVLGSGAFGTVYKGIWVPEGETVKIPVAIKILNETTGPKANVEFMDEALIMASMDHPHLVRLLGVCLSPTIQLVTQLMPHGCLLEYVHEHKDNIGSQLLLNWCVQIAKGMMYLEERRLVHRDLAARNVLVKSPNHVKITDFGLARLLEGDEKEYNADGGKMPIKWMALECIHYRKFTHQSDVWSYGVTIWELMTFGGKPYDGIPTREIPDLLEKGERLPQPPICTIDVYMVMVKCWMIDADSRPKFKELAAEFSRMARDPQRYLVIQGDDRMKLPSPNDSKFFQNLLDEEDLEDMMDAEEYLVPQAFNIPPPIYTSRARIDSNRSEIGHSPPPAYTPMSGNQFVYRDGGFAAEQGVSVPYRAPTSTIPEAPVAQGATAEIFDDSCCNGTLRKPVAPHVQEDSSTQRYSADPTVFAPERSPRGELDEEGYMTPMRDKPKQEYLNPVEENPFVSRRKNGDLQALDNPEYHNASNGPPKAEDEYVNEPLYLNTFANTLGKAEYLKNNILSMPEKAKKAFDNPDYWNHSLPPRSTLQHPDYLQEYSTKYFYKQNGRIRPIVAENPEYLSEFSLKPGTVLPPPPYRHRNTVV

podocytes = test: Podocytes treated with TGFβ and co-treated with ErbB4 inhibitor (qRT-PCR, immunofluorescence); type: cell-based, mouse; settings: podocytes treated with TGFb plus inhibitor, 2 h
Method: FIG. 5A is a bar graph showing qRT-PCR based analysis of levels of various RNAs in podocytes cultured in normal glucose (5 mM) v/s treatment with HG (30 mM) for 2 h or 24 h (Notch-1). FIG. 5B is a bar graph showing qRT-PCR based analysis of levels of various RNAs in podocytes cultured in normal media or treated with TGFb in the absence or presence of ErbB4 inhibitor (JNJ) for 2 h. FIG. 5C provides representative immunofluorescence images showing podocytes cultured in normal media or treated with TGFb in the absence or presence of ErbB4 inhibitor (JNJ) for 2 h and stained for paxillin, synpo or ErbB4.

SMILES | Proteinuria (albuminuria) [1] | Podocyte foot process effacement (TEM) ([2]; WT mice after STZ) | Podocyte foot process effacement (TEM) ([2]; miR-146a KO DN mice) | Affinity and selectivity for ErbB4 versus EGFR (ErbB4) | Reversal of deleterious expression changes induced by TGFβ (mRNA and protein level) (podocytes) | Inhibition of ErbB4 (affinity) (ErbB4)
C#Cc1cccc(Nc2ncnc3cc(OCCOC)c(OCCOC)cc23)c1 [Erlotinib] | significantly reduced proteinuria (albuminuria) | significantly reduced podocyte foot process effacement | significantly reduced podocyte foot process effacement | high affinity and selectivity for ErbB4 |  | 
Cl.Nc1ncnc(Nc2ccc(OCc3ccccc3)c(Cl)c2)c1/C=N/OCCN1CCOCC1 [JNJ28871063] |  |  |  | high affinity and selectivity for ErbB4 | reversed the deleterious expression changes induced by TGFβ | nanomolar affinity
CS(=O)(=O)CCNCc1ccc(-c2ccc3ncnc(Nc4ccc(OCc5cccc(F)c5)c(Cl)c4)c3c2)o1 [Lapatinib] |  |  |  | much more effective against EGFR v/s ErbB4 | less effective | only weakly effective on ErbB4
CNc1cc2c(Nc3cccc(Br)c3)ncnc2cn1 [PD158780] |  |  |  | high affinity and selectivity for ErbB4 |  | 
